According to ChEMBL document CHEMBL1152994, “Plasmid-mediated carbapenem-hydrolyzing beta-lactamase KPC-2 in Klebsiella pneumoniae isolate from Greece” (2008):
Values after ≈ are worked out from the molar mass of the structure shown.

How the values were obtained:
[1] = tested on: Klebsiella pneumoniae; assay: Antibacterial activity against Klebsiella pneumoniae Greece producing KPC-2 beta-lactamase by E test method; format: functional
[2] = tested on: Escherichia coli; assay: Antibacterial activity against Escherichia coli J53 expressing Klebsiella pneumoniae Greece blaKPC-2 gene by E test method; format: functional
[3] = tested on: Escherichia coli; assay: Antibacterial activity against Escherichia coli J53 by E test method; format: functional
[4] = target: T1, Class A carbapenemase (Klebsiella pneumoniae) (UniProt A9LM97); assay: Activity at Klebsiella pneumoniae Greece Carbapenem-Hydrolyzing-Lactamase KPC-2 assessed per mg of total protein by spectrophotometrically
T1 sequence (whole entry): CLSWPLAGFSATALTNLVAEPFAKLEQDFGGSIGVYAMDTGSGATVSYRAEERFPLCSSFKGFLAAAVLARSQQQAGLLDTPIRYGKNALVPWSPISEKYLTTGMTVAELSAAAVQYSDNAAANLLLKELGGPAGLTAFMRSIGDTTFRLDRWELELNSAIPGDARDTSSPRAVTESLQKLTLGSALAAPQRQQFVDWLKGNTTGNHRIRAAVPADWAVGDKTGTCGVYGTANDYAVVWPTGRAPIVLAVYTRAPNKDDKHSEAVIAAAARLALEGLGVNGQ

| Compound | MIC [1] | MIC [2] | MIC [3] | Activity [4] |
| --- | --- | --- | --- | --- |
| C[C@H]1[C@H](NC(=O)/C(=N\OC(C)(C)C(=O)O)c2csc(N)n2)C(=O)N1S(=O)(=O)O [AZTREONAM] | > 256 µg/mL | 16 µg/mL (≈ 36.7 µM) |  |  |
| CC(C)(O/N=C(\C(=O)N[C@@H]1C(=O)N2C(C(=O)[O-])=C(C[n+]3ccccc3)CS[C@H]12)c1csc(N)n1)C(=O)O [CEFTAZIDIME] | > 256 µg/mL | 4 µg/mL (≈ 7.32 µM) | 0.06 µg/mL (≈ 0.11 µM) |  |
| CC(=O)OCC1=C(C(=O)O)N2C(=O)[C@@H](NC(=O)Cc3cccs3)[C@H]2SC1 [CEPHALOTHIN] | > 256 µg/mL | > 256 µg/mL | 1 µg/mL (≈ 2.52 µM) |  |
| C[C@@H](O)[C@H]1C(=O)N2C(C(=O)O)=C(S[C@@H]3CN[C@H](C(=O)Nc4cccc(C(=O)O)c4)C3)[C@H](C)[C@H]12 [ERTAPENEM] | 12 µg/mL (≈ 25.2 µM) | 0.38 µg/mL (≈ 0.799 µM) | 0.03 µg/mL (≈ 0.0631 µM) | 0.05 µmol |
| CC1(C)S[C@@H]2[C@H](NC(=O)[C@H](N)c3ccc(O)cc3)C(=O)N2[C@H]1C(=O)O [AMOXICILLIN] | > 256 µg/mL | > 256 µg/mL | 4 µg/mL (≈ 10.9 µM) |  |
| CCN1CCN(C(=O)N[C@@H](C(=O)N[C@@H]2C(=O)N3[C@@H]2SC(C)(C)[C@@H]3C(=O)O)c2ccccc2)C(=O)C1=O [PIPERACILLIN] | > 256 µg/mL | 128 µg/mL (≈ 247 µM) | 1 µg/mL (≈ 1.93 µM) |  |
| COLISTIN | 128 µg/mL | 0.38 µg/mL | 0.38 µg/mL |  |
| CC1(C)S[C@@H]2[C@H](NC(=O)[C@H](C(=O)O)c3ccsc3)C(=O)N2[C@H]1C(=O)O [TICARCILLIN] | > 256 µg/mL | > 256 µg/mL | 2 µg/mL (≈ 5.2 µM) |  |
| GENTAMICIN | 1.5 µg/mL | 0.064 µg/mL | 0.064 µg/mL |  |
| C[C@@H](O)[C@H]1C(=O)N2C(C(=O)O)=C(SCCNC=N)C[C@H]12 [IMIPENEM ANHYDROUS] | 12 µg/mL (≈ 40.1 µM) | 1.5 µg/mL (≈ 5.01 µM) |  | 0.2 µmol |
| CO/N=C(\C(=O)N[C@@H]1C(=O)N2C(C(=O)O)=C(COC(C)=O)CS[C@H]12)c1csc(N)n1 [CEFOTAXIME] | > 32 µg/mL | 4 µg/mL (≈ 8.78 µM) | 0.06 µg/mL (≈ 0.132 µM) |  |
| CO/N=C(\C(=O)N[C@@H]1C(=O)N2C(C(=O)[O-])=C(C[N+]3(C)CCCC3)CS[C@H]12)c1csc(N)n1 [CEFEPIME] | > 256 µg/mL | 1.5 µg/mL (≈ 3.12 µM) | 0.03 µg/mL (≈ 0.0624 µM) |  |
| CO[C@@]1(NC(=O)Cc2cccs2)C(=O)N2C(C(=O)O)=C(COC(N)=O)CS[C@@H]21 [CEFOXITIN] | 64 µg/mL (≈ 150 µM) | 4 µg/mL (≈ 9.36 µM) | 2 µg/mL (≈ 4.68 µM) |  |
| C[C@@H](O)[C@H]1C(=O)N2C(C(=O)O)=C(S[C@@H]3CN[C@H](C(=O)N(C)C)C3)[C@H](C)[C@H]12 [MEROPENEM] | 6 µg/mL (≈ 15.6 µM) | 0.38 µg/mL (≈ 0.991 µM) | 0.03 µg/mL (≈ 0.0782 µM) | 0.06 µmol |
| CN(C)c1cc(NC(=O)CNC(C)(C)C)c(O)c2c1C[C@H]1C[C@H]3[C@H](N(C)C)C(O)=C(C(N)=O)C(=O)[C@@]3(O)C(O)=C1C2=O [TIGECYCLINE] | 3 µg/mL (≈ 5.12 µM) | 0.5 µg/mL (≈ 0.854 µM) | 0.5 µg/mL (≈ 0.854 µM) |  |
